Experimental data: patent publication US10676754B2, “Compositions and methods for producing plants resistant to glyphosate herbicide” (E I DU PONT DE NEMOURS AND COMPANY, priority 2014, dated 2020)

B1: I-SceI: wild type yeast I-SceI homing nuclease (protein, UniProt P03882 1-235, looked up)
Intron-encoded endonuclease …: MKNIKKNQVMNLGPNSKLLKEYKSQLIELNIEQFEAGIGLILGDAYIRSRDEGKTYCMQFEWKNKAYMDHVCLLYDQWVLSPPHKKERVNHLGNLVITWGAQTFKHQAFNKLANLFIVNNKKTIPNNLVENYLTPMSLAYWFMDDGGKWDYNKNSTNKSIVLNTQSFTFEEVEYLVKGLRNKFQLNCYVKINKNKPIIYIDSMSYLIFYNLIKPYLIPQMMYKLPNTISSETFLK

Legend:
maize plants = test: Glyphosate spray test on maize plants at V3 growth stage; type: in vivo
Method: TO plants grew well in the greenhouse and were fertile. A sample of TO plants was sprayed with a 1× dose of glyphosate at V3 growth stage using the spray booth setting of 20 gallons per acre. The 1× dose of glyphosate was prepared as follow: 2.55 ml Powermax in 300 ml water (active ingredient: glyphosate, N-(phosphonomethyl) glycine, in the form of its potassium salt at 48.7%). […] This TO plant was designated as hemizygous at the epsps locus.
A random sample of the F1 plants progeny of the E1 and E2 parental plants) was sprayed with 2.55 ml Powermax (glyphosate solution) in 300 ml water at the setting of 20 gallons per acre at the V3 stage of growth.

F2 maize embryos = test: Embryo rescue: germination of F2 embryos on rooting media containing glyphosate; type: in vivo
Method: For embryo rescue of the F2 progeny seedlings from selfed F1 plants, ears were harvested 18 days after pollination and sterilized in 20:80 bleach/water mix. Embryos were excised and placed on rooting media (272V—4.3 g/L Murashige and Skoog basal salt mixture, 5.0 ml/L MS vitamins stock solution, 100 mg/L mio-inositol, 40 g/L sucrose, 6 g/L Bacto Agar) with or without glyphosate at 0.1 mM, 0.5 mM, 1 mM, 3 mM concentration. They were transferred to a light room at 26° C. and allowed to germinate for 7 days. Embryos containing the wild-type EPSPS alleles, hemizygous and homozygous for the epsps-TIPS allele germinated on media without glyphosate. […] The presence of the epsps-TIPS allele in the analyzed seedlings is indicated as “positive” or “negative”, while the wild-type EPSPS allele copy number is indicated in the columns to the right (Table 14)

[1] = test system: artificial I-SceI recognition site in maize genome; conditions: analyzed F1 plants, transgenic nuclease introduced by crossing and activated by gene excision; cited from earlier work
[2] = epsps-TIPS-containing F1 plants after spray

Molecule	survival of plants (maize plants; F1 plants containing the epsps-TIPS edited allele, 2.55 ml Powermax in 300 ml water, 20 gallons per acre, V3)	leaf tissue damage (maize plants; F1 plants without the epsps-TIPS allele, 2.55 ml Powermax in 300 ml water, 20 gallons per acre, V3)	leaf tissue damage (maize plants; T0 plants hemizygous for epsps-TIPS alleles, 1× dose, V3, 20 gallons per acre, seven days after application)	growth of plants (maize plants; [2])	leaf symptoms over time (maize plants; [2])	leaf tissue damage (maize plants; one T0 plant hemizygous at the epsps locus, 1× dose, 14 days after application)	leaf tissue damage (maize plants; other T0 plantlets, 1× dose, V3, 20 gallons per acre, seven days after application)	tolerance of plants (maize plants; some epsps-TIPS edited maize T0 plants, 1× dose)	green seedling production (F2 maize embryos; 0.1 mM in rooting media, 7 days, 26° C., F2 embryos)	wild-type seedlings among germinating embryos (F2 maize embryos; 0.1 mM or any other concentration up to 3 mM in media)	green seedling production (F2 maize embryos; embryos homozygous for the epsps-TIPS allele, 1.0 mM)	green seedling production (F2 maize embryos; hemizygous embryos, 1.0 mM)	plants with mutations of the recognition sequence [1]
O=C(O)CNCP(=O)(O)O [glyphosate, N-phosphonomethylglycine]	survived	severe leaf tissue damage	no leaf tissue damage	slowed down	bleached sectors of the leaf tissue on newly emerging leaves	no damage to the leaf tissue	severely damaged	some level of tolerance	only embryos containing the epsps-TIPS alleles produced green seedlings	No wild-type seedlings were detected	produced green seedlings	did not	–
B1	–	–	–	–	–	–	–	–	–	–	–	–	1%
